Here are results for 2 compounds from US10966996B2, “Glechoma longitube extract, preparation method for same, and use thereof in sugar reduction, weight loss, and lipid reduction” (SHANGHAI INSTITUTE OF MATERIA MEDICA CHINESE ACADEMY OF …, priority 2014, dated 2021).

For one assay, the target named is T1, porcine pancrelipase (Sus scrofa, UniProt P00591).
T1 construct: purchased Sigma
T1 sequence (P00591 1-450): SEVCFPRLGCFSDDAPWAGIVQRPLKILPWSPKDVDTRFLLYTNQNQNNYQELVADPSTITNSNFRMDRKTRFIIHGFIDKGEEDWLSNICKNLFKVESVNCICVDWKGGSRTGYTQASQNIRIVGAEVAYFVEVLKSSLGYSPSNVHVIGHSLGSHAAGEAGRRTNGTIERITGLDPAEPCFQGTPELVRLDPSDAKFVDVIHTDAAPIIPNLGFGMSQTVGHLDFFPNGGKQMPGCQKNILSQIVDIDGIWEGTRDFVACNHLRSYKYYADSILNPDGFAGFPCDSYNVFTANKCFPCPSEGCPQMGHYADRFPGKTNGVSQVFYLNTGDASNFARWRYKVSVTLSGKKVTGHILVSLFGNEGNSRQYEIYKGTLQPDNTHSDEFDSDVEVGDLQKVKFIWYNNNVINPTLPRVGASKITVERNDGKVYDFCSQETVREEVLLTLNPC
Put plainly: inhibitory activity against pancrelipase (p-Nitrophenyl acetate substrate). The settings on record: read-out: Inhibition rate % (50 μM) against pancrelipase. The class given is biochemical. The text has this: OD compound, OD blank, and OD negative control represented the fluorescence values from a compound well, a blank well, and a negative control well free of DGAT1 enzyme, and the concentrations of the compounds when the enzyme activity inhibition rate (%) reached 50% were set as IC50 value; (3) inhibitory activity of the individual compounds separated from the extract of Glechoma longituba (Nakai) Kupr., LQC-H-1, against pancrelipase: substrate p-Nitrophenyl acetate (Sigma, USA) was formulated to 1.35 mM with phosphate buffer (25 mM, pH 6.8); porcine pancrelipase (Sigma) was formulated to 10 mg/ml with phosphate buffer; brominated eneyne compounds were formulated to solutions of different concentrations with phosphate buffer. Then, 50 μl of 1.35 mM p-Nitrophenyl acetate (Sigma, USA) solution and 10 μl of test compounds of different concentrations were sequentially added into a 96-well plate and pre-incubated at 37° C. for 5 mins. Finally, 50 μl of 10 mg/ml pancrelipase (EC 3.1.1.3, Sigma, USA) was added and mixed. The reaction proceeded at 37° C. for further 20 mins Absorbance of each well was measured at 492 nm. The inhibition rates (%) of the test samples against pancrelipase were calculated based on the absorbance at 492 nm. The concentrations of the compounds when then enzyme activity inhibition rate (%) reached 50% was set as IC50 value. The inhibition rate (%) could be calculated according to the following formula: Inhibition rate (%)=[(A−B)−(C−D)]/(A−B)×100
In the above formula, A, B, C, and D represented the absorbance of a blank well after the reaction, the absorbance of a blank well prior to the reaction, the absorbance of a sample well after the reaction, and the absorbance of a sample well prior to the reaction.

Another assay concerns the target T2, glucose oxidase (GOX) (Homo sapiens, UniProt Q9UJM8).
T2 sequence (Q9UJM8 1-370): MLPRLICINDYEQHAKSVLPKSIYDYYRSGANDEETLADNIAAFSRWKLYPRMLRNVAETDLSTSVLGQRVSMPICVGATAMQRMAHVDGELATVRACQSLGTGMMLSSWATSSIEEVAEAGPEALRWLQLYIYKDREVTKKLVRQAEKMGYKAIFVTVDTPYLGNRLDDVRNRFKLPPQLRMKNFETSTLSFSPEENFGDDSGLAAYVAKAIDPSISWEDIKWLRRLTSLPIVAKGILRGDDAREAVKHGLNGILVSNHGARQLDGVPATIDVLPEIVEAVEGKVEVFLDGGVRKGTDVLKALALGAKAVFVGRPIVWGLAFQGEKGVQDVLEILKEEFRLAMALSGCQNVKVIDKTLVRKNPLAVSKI
Kind of assay: inhibitory activity against glucose oxidase (GOX), enzyme coupling method with glycolic acid substrate. The class given is biochemical. More on the design: Vmax: unit not given here. The settings on record: for inhibition at 0.1 µM / inhibition at 0.3 µM / inhibition at 1 µM / inhibition at 3 µM / inhibition at 10 µM / inhibition at 30 µM / inhibition at 100 µM: read-out: Inhibition rate; for IC50: fitted by Graphpad Prism 5.0, tested 100 μM-0.1 μM. How it is done: Mechanism of experiment: enzyme coupling method utilizes peroxidase (POD) and substrates thereof to react with generated H2O2 to produce colored products so as to determine the catalytic reaction rate of glucose oxidase. POD catalyzes H2O2 to react with phenol and 4-amino antipyrine to produce brown-red quinone substances.
Experimental method: reagents were added according to the table below; the reaction was immediately initiated upon the final addition of substrate glycolic acid; the kinetic course of the reaction was detected by microplate reader; the enzyme activity was represented by Vmax, maximum reaction velocity.
The measurement results were fitted by Graphpad Prism 5.0 to calculate IC50 values.

For `O=C(O)C1O[C@@H](OC2C(O)[C@H](O)C(C(=O)O)O[C@H]2Oc2cc(O)c3c(=O)cc(-c4ccc(O)c(O)c4)oc3c2)C(O)C(O)[C@@H]1O` (stereo partly drawn) [Compound I, luteolin-7-O-[β-glucuronosyl(1→2)β-glucuronic acid]], the inhibition at 50 µM at porcine pancrelipase worked out at 41.9%. On glucose oxidase (GOX) (0.1 μM), the Vmax was determined as 35.13 ± 0.22 and the inhibition at 0.1 µM worked out at 1.54 ± 0.62%. In addition, on glucose oxidase (GOX) (0.3 μM), the Vmax was determined as 35.47 ± 0.98 and the inhibition at 0.3 µM amounted to 0.6 ± 2.74%. Besides, on glucose oxidase (GOX) (1 μM), the Vmax stood at 35.36 ± 0.65 and the inhibition at 1 µM came to 0.9 ± 1.82%. On glucose oxidase (GOX) (3 μM), the Vmax is 35.39 ± 0.63 and the inhibition at 3 µM stood at 0.83 ± 1.77%. At glucose oxidase (GOX) (10 μM), the Vmax was determined as 35.08 ± 0.21 and the inhibition at 10 µM amounted to 1.69 ± 0.58%. In addition, on glucose oxidase (GOX) (30 μM), the Vmax was 34.04 ± 0.65 and the inhibition at 30 µM was 4.6 ± 1.82%. Moreover, at glucose oxidase (GOX) (100 μM), the Vmax is listed as 29.34 ± 0.10 and the inhibition at 100 µM was found to be 17.8 ± 0.29%. The compound further came in with an IC50 against glucose oxidase (GOX) of 500 µM.

`O=C(O)C1O[C@@H](OC2C(O)[C@H](O)C(C(=O)O)O[C@H]2Oc2cc(O)c3c(=O)cc(-c4ccc(O)cc4)oc3c2)C(O)C(O)[C@@H]1O` (stereo partly drawn) [Compound II, apigenin-7-O-[β-glucuronosyl(1→2)β-glucuronic acid]]: on porcine pancrelipase, the inhibition at 50 µM was 41.6%. Besides, at glucose oxidase (GOX) (0.1 μM), the Vmax is on record as 36.05 ± 0.85 and the inhibition at 0.1 µM is -1.04 ± 2.39%. Besides, at glucose oxidase (GOX) (0.3 μM), the Vmax is reported as 36.35 ± 0.84 and the inhibition at 0.3 µM is -1.88 ± 2.35%. Besides, on glucose oxidase (GOX) (1 μM), the Vmax is 35.42 ± 0.43 and the inhibition at 1 µM came out at 0.74 ± 1.19%. Besides, on glucose oxidase (GOX) (3 μM), the Vmax was 35.85 ± 1.03 and the inhibition at 3 µM is -0.48 ± 2.9%. At glucose oxidase (GOX) (10 μM), the Vmax was determined as 35.63 ± 1.00 and the inhibition at 10 µM stood at 0.15 ± 2.81%. Also, at glucose oxidase (GOX) (30 μM), the Vmax was found to be 33.88 ± 0.98 and the inhibition at 30 µM worked out at 5.05 ± 2.76%. Further, on glucose oxidase (GOX) (100 μM), the Vmax was 29.13 ± 0.80 and the inhibition at 100 µM stood at 18.4 ± 2.23%. On glucose oxidase (GOX), half-maximal inhibition (IC50) required 400 µM.

The term inhibition denotes the drop in the measured response relative to a control, in per cent. In general, IC50 refers to the midpoint of a concentration-inhibition curve.
